Reference: patent publication US10899793B2, “Melanocortin ligands and methods of use thereof” (priority 2016, dated 2021)
Square brackets hold non-standard residues; d marks the D form. Peptide text beside a SMILES is read from it. Bip = N[C@@H](Cc1ccc(-c2ccccc2)cc1)C(=O)O; dPhe(4-I) = N[C@H](Cc1ccc(I)cc1)C(=O)O; 2Nal = N[C@@H](Cc1ccc2ccccc2c1)C(=O)O; d2Nal = N[C@H](Cc1ccc2ccccc2c1)C(=O)O; Bta = N[C@@H](Cc1csc2ccccc12)C(=O)O; Tic = O=C(O)[C@@H]1Cc2ccccc2CN1; Nle = CCCC[C@H](N)C(=O)O

Legend:
[1] = target: T1, mMC3R (Mus musculus, UniProt P33033); assay: AlphaScreen cAMP agonist assay at mMC3R; details: for mMC3R Agonist, percent of the NDP-MSH maximal positive control: Table 1, @ 100 μM
[2] = target: mMC5R (Mus musculus, UniProt P41149); assay: AlphaScreen cAMP agonist assay at mMC5R; details: for activation at 100 µM: read-out: percent of the NDP-MSH maximal positive control, Table 2
[3] = target: mMC1R (Mus musculus, UniProt Q01727); assay: AlphaScreen cAMP agonist assay at mMC1R; details: for mMC1R percent of the NDP-MSH maximal positive control: Table 2, @ 100 μM
[4] = target: T2, mMC4R (Mus musculus, UniProt P56450); assay: AlphaScreen cAMP agonist assay at mMC4R; details: for activation at 100 µM: read-out: mMC4R Agonist, percent of the NDP-MSH maximal positive control
[5] = target: T2, mMC4R; details: for mMC4R Antagonist pA2 ± SEM: Table 1, pA2 = -Log(Ki); for mMC4R Antagonist pA2 ± SEM / mMC4R pA2: Schild analysis; for mMC4R pA2: Table 5
[6] = target: T1, mMC3R; details: Schild analysis; for mMC3R Antagonist pA2 ± SEM: Table 1, pA2 = -Log(Ki), Full Agonist = full dose-response, No Activity = no shift in EC50; for mMC3R pA2: Table 5

T1 sequence (P33033 whole entry): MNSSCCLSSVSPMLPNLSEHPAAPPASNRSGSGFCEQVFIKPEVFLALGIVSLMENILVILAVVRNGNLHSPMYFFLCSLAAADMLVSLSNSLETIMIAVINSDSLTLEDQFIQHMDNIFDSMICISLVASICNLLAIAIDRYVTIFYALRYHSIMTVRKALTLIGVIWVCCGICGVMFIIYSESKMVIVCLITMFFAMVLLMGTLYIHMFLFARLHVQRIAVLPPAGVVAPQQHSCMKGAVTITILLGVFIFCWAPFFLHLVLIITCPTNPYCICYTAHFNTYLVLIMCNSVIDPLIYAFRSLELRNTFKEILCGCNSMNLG
Sequence of mMC5R (P41149 whole entry): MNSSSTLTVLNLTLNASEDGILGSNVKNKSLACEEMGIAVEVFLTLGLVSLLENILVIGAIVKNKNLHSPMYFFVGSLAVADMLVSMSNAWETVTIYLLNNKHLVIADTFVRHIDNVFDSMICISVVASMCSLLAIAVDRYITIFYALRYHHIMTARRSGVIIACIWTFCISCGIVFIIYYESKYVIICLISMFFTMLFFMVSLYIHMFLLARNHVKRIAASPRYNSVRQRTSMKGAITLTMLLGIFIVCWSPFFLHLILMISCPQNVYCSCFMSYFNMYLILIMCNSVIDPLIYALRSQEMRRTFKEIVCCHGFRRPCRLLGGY
Sequence of mMC1R (Q01727 whole entry): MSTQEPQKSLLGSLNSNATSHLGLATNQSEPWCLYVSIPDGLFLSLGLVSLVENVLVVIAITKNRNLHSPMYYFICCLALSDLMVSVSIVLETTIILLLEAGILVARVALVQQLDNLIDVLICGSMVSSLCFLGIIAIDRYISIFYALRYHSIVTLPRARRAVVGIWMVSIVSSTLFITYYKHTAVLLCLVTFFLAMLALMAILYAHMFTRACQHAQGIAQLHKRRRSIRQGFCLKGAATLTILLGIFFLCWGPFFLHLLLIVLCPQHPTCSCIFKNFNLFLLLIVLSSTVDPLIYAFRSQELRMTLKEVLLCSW
T2 sequence (P56450 whole entry): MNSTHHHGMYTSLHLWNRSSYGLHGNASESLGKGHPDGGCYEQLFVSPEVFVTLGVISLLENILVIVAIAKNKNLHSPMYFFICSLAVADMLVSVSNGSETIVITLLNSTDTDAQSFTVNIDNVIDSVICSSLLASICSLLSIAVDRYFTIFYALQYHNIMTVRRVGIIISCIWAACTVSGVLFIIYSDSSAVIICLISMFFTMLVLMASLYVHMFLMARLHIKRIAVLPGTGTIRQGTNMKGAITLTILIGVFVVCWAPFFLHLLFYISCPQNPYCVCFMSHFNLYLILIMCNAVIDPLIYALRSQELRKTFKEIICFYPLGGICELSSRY

Molecule	mMC3R Agonist, percent of the NDP-MSH maximal positive control [1] [% @ 100 μM]	mMC1R percent of the NDP-MSH maximal positive control [3] [% @ 100 μM]	mMC3R Antagonist pA2 ± SEM [6]	mMC4R Antagonist pA2 ± SEM [5]	activation at 100 µM [4] [%]	activation at 100 µM [2] [%]	also measured
CCCC[C@H](NC(=O)[C@H](CO)NC(=O)[C@H](Cc1ccc(O)cc1)NC(=O)[C@H](CO)NC(C)=O)C(=O)N[C@@H](CCC(=O)O)C(=O)N[C@@H](Cc1c[nH]cn1)C(=O)N[C@@H](CCCNC(=N)N)C(=O)N[C@H](Cc1ccccc1)C(=O)N[C@@H](Cc1c[nH]c2ccccc12)C(=O)NCC(=O)N[C@@H](CCCCN)C(=O)N1CCC[C@H]1C(=O)N[C@H](C(N)=O)C(C)C [SKY2-125-3, Ac-Ser-Tyr-Ser-Nle-Glu-His-Arg-DPhe-Trp-Gly-Lys-Pro-Val-NH2] (Ac-SYS[Nle]EHR[dF]WGKPV-NH2)							EC50 [1]: 1.8 µM; EC50 [2]: 1600 nM; EC50 [3]: 380 ± 70 nM; EC50 [4]: 9.5 µM
CC(=O)N[C@@H](CCCNC(=N)N)C(=O)N[C@@H](CCCNC(=N)N)C(=O)N[C@H](Cc1ccc(I)cc1)C(=O)N[C@@H](Cc1ccc(-c2ccccc2)cc1)C(N)=O [SKY4-48-2, Ac-Arg-Arg-(pI)DPhe-Bip-NH2]	45	44			32		antagonist pA2 at the mMC4R [5]: 5.8
CC(=O)N[C@@H](Cc1c[nH]cn1)C(=O)N[C@@H](CCCNC(=N)N)C(=O)N[C@H](Cc1ccc(I)cc1)C(=O)N[C@@H](Cc1ccc(-c2ccccc2)cc1)C(N)=O [SKY4-48-3, Ac-His-Arg-(pI)DPhe-Bip-NH2] (Ac-HR[dPhe(4-I)][Bip]-NH2)	53		No Activity	No Activity	43		
CC(=O)N[C@@H](Cc1csc2ccccc12)C(=O)N[C@@H](CCCNC(=N)N)C(=O)N[C@H](Cc1ccc(I)cc1)C(=O)N[C@@H](Cc1ccc(-c2ccccc2)cc1)C(N)=O [SKY4-48-5, Ac-3Bal-Arg-(pI)DPhe-Bip-NH2] (Ac-[Bta]R[dPhe(4-I)][Bip]-NH2)	51		No Activity	No Activity	35		
CC(=O)N[C@@H](Cc1ccccc1)C(=O)N[C@@H](CCCNC(=N)N)C(=O)N[C@H](Cc1ccc(I)cc1)C(=O)N[C@@H](Cc1ccc(-c2ccccc2)cc1)C(N)=O [SKY4-48-7, Ac-Phe-Arg-(pI)DPhe-Bip-NH2] (Ac-FR[dPhe(4-I)][Bip]-NH2)	30	67	No Activity	No Activity			
CC(=O)N[C@@H](Cc1c[nH]cn1)C(=O)N[C@@H](CCCNC(=N)N)C(=O)N[C@H](Cc1ccc(I)cc1)C(=O)N[C@H](Cc1ccc2ccccc2c1)C(N)=O [SKY4-48-43, Ac-His-Arg-(pI)DPhe-DNal(2′)-NH2] (Ac-HR[dPhe(4-I)][d2Nal]-NH2)			Full Agonist		50	47	
CC(=O)N[C@@H](Cc1ccc2ccccc2c1)C(=O)N[C@@H](CCCNC(=N)N)C(=O)N[C@H](Cc1ccc(I)cc1)C(=O)N[C@H](Cc1ccc2ccccc2c1)C(N)=O [SKY4-48-48, Ac-Nal(2′)-Arg-(pI)DPhe-DNal(2′)-NH2] (Ac-[2Nal]R[dPhe(4-I)][d2Nal]-NH2)	31	53	No Activity	No Activity		40	
CC(=O)N[C@H](Cc1ccc2ccccc2c1)C(=O)N[C@@H](CCCNC(=N)N)C(=O)N[C@H](Cc1ccc(I)cc1)C(=O)N[C@H](Cc1ccc2ccccc2c1)C(N)=O [SKY4-48-49, Ac-DNal(2′)-Arg-(pI)DPhe-DNal(2′)-NH2] (Ac-[d2Nal]R[dPhe(4-I)][d2Nal]-NH2)	40				37	43	
CC(=O)N[C@H](Cc1c[nH]c2ccccc12)C(=O)N[C@H](CCCNC(=N)N)C(=O)N[C@@H](Cc1ccccc1)C(=O)N[C@H](Cc1c[nH]cn1)C(N)=O [SKY5-121, Ac-DTrp-DArg-Phe-DHis-NH2] (Ac-[dW][dR]F[dH]-NH2)							mMC3R pA2 [6]: pA2 = No Activity; mMC4R pA2 [5]: pA2 = No Activity; EC50 [1]: > 100 µM; mMC5R percent of the NDP-MSH maximal positive control ([2]; Table 5, @ 100 μM): 29% @ 100 μM; EC50 [3]: > 100000 nM; EC50 [4]: > 100 µM
CC(=O)N[C@H](Cc1ccc2ccccc2c1)C(=O)N[C@@H](CCCNC(=N)N)C(=O)N[C@H](Cc1ccc(I)cc1)C(=O)N[C@@H](Cc1ccc2ccccc2c1)C(N)=O [SKY5-146-5, Ac-DNal(2′)-Arg-(pI)DPhe-Nal(2′)-NH2] (Ac-[d2Nal]R[dPhe(4-I)][2Nal]-NH2)	43				39	40	
CC(=O)N[C@@H](Cc1c[nH]cn1)C(=O)N[C@@H](CCCNC(=N)N)C(=O)N[C@H](Cc1ccccc1)C(=O)N[C@@H](Cc1c[nH]c2ccccc12)C(N)=O [SKY5-146-6, Ac-His-Arg-DPhe-Trp-NH2] (Ac-HR[dF]W-NH2)							mMC3R pA2 [6]: Full Agonist; mMC4R pA2 [5]: pA2 = No Activity; EC50 [1]: 21 µM; agonist activity at the mMC3R in words ([1]; up to 100 μM): micromolar agonists; EC50 [2]: 21000 nM; agonist activity at the mMC5R in words ([2]; up to 100 μM): micromolar agonists; EC50 [3]: 1300 nM; agonist / inverse agonist activity at the mMC1R in words ([3]; up to 100 μM): micromolar agonists; EC50 [4]: > 100 µM; agonist activity at the mMC4R in words ([4]; up to 100 μM): no agonist activity
Ac-3Bal-Arg-(pI)DPhe-DNal(2′)-NH2 (Ac-[Bta]R[dPhe(4-I)][d2Nal]-NH2) [SKY4-48-45]	34	36	No Activity	No Activity			percent of the NDP-MSH maximal positive control, Table 2 ([2]; Table 2, @ 100 μM): 41% @ 100 μM; mMC4R Agonist, percent of the NDP-MSH maximal positive control ([4]; Table 1, @ 100 μM): 38% @ 100 μM
Ac-SYSMEHRFWGKPV-NH2 [SKY2-125-5]							EC50 [1]: 5.8 µM; fold decreased potency at the mMC3R relative to α-MSH ([1]; Arg-Phe reverse analog vs parent): 45,000 fold; EC50 [2]: 2600 nM; EC50 [3]: 3000 nM; EC50 [4]: 44 µM

Second part, led by results:

mMC3R Agonist, percent of the NDP-MSH maximal positive control [1] [% @ 100 μM]	mMC1R percent of the NDP-MSH maximal positive control [3] [% @ 100 μM]	mMC3R Antagonist pA2 ± SEM [6]	mMC4R Antagonist pA2 ± SEM [5]	Molecule	activation at 100 µM [4] [%]	activation at 100 µM [2] [%]	also measured
	38	Full Agonist		CC(=O)N1Cc2ccccc2C[C@H]1C(=O)N[C@@H](CCCNC(=N)N)C(=O)N[C@H](Cc1ccc(I)cc1)C(=O)N[C@@H](Cc1csc2ccccc12)C(N)=O [SKY4-48-14, Ac-Tic-Arg-(pI)DPhe-3Bal-NH2] (Ac-[Tic]R[dPhe(4-I)][Bta]-NH2)			
	23	No Activity	No Activity	CC(=O)N[C@@H](Cc1ccc(-c2ccccc2)cc1)C(=O)N[C@@H](CCCNC(=N)N)C(=O)N[C@H](Cc1ccc(I)cc1)C(=O)N[C@@H](Cc1ccc2ccccc2c1)C(N)=O [SKY4-48-36, Ac-Bip-Arg-(pI)DPhe-Nal(2′)-NH2] (Ac-[Bip]R[dPhe(4-I)][2Nal]-NH2)		21	
	66	No Activity		CC(=O)N1Cc2ccccc2C[C@H]1C(=O)N[C@@H](CCCNC(=N)N)C(=O)N[C@H](Cc1ccc(I)cc1)C(=O)N[C@@H](Cc1ccc2ccccc2c1)C(N)=O [SKY4-48-38, Ac-Tic-Arg-(pI)DPhe-Nal(2′)-NH2] (Ac-[Tic]R[dPhe(4-I)][2Nal]-NH2)		48	
42		No Activity	No Activity	CC(=O)N1Cc2ccccc2C[C@H]1C(=O)N[C@@H](CCCNC(=N)N)C(=O)N[C@H](Cc1ccc(I)cc1)C(=O)N[C@H](Cc1ccc2ccccc2c1)C(N)=O [SKY4-48-46, Ac-Tic-Arg-(pI)DPhe-DNal(2′)-NH2] (Ac-[Tic]R[dPhe(4-I)][d2Nal]-NH2)	33	74	
	39	No Activity	No Activity	CC(=O)N1Cc2ccccc2C[C@H]1C(=O)N[C@@H](CCCNC(=N)N)C(=O)N[C@H](Cc1ccc(I)cc1)C(=O)N[C@@H](Cc1ccc(-c2ccccc2)cc1)C(N)=O [SKY5-146-1, Ac-Tic-Arg-(pI)DPhe-Bip-NH2] (Ac-[Tic]R[dPhe(4-I)][Bip]-NH2)			
